Our source for the IC50 values is patent US6870056B1, “Substitituted polycyclic aryl and heteroaryl pyridones useful for selective inhibition of the coagulation cascade” (Pharmacia Corporation, priority 1999, dated 2005).

Common to all, as to format: biochemical
Experiment [1] has as its target T1, recombinant soluble tissue factor and recombinant human factor VIIa (TF-VIIa) (Homo sapiens, UniProt P08709).
T1 construct: purchased American Diagnostica, Greenwich Conn; host or cells: soluble TF made in house in E. coli
Kind of experiment: TF-VIIa Assay. The note with it: chromogenic substrate, 60 min, room temperature, pH 8.0. On the procedure: (§1) In this assay 100 nM recombinant soluble tissue factor and 2 nM recombinant human factor VIIa are added to a 96-well assay plate containing 0.4 mM of the substrate, N-Methylsulfonyl-D-phe-gly-arg-p-nitroaniline and either inhibitor or buffer (5 mM CaCl2,50 mM Tris-HCl, pH 8.0, 100 mM NaCl, 0.1% BSA). The reaction, in a final volume of 100 ul is measured immediately at 405 nm to determine background absorbance. The plate is incubated at room temperature for 60 min, at which time the rate of hydrolysis of the substrate is measured by monitoring the reaction at 405 nm for the release of p-nitroaniline. Percent inhibition of TF-VIIa activity is calculated from OD405 nm value from the experimental and control sample.
(§2) Recombinant soluble TF, consisting of amino acids 1-219 of the mature protein sequence was expressed in E. coli and purified using a Mono Q Sepharose FPLC. Recombinant human VIIa was purchased from American Diagnostica, Greenwich Conn. and chromogenic substrate N-Methylsulfonyl-D-phe-gly-arg-p-nitroaniline was prepared by American Peptide Company, Inc., Sunnyvale, Calif. Factor Xa was obtained from Enzyme Research Laboratories, South Bend Ind., thrombin from Calbiochem, La Jolla, Calif., and trypsin and L-BAPNA from Sigma, St Louis Mo. The chromogenic substrates S-2765 and S-2238 were purchased from Chromogenix, Sweden.

The next experiment has as its target T2, human factor Xa (Homo sapiens, UniProt P00742).
T2 construct: leads from XII to XIIa to XIa to IXa and to the conversion of X to Xa; purchased Enzyme Research Laboratories, South Bend Ind
The experiment in a line: Xa Assay. The note with it: S-2765 substrate, 60 min, room temperature, pH 8.0. The procedure:
as §1, with “0.3” for “In this assay 100”, “nM” for “nM recombinant soluble tissue factor and 2 nM recombinant”, “Xa and 0.15 mM N-α-Benzyloxycarbonyl-D-arginyl-L-glycyl-L-arginine-p-nitroaniline-dihydrochloride (S-2765)” for “VIIa”, “containing” for “containing 0.4 mM of the substrate, N-Methylsulfonyl-D-phe-gly-arg-p-nitroaniline and”, “(50” for “(5 mM CaCl2,50”, “Xa” for “TF-VIIa”
as §2

The next experiment addresses human thrombin (Homo sapiens, UniProt P00734). The experiment in a line: Thrombin Assay. The note with it: chromogenic substrate, 60 min, room temperature, pH 8.0; read-out: Thrombin II IC50. The procedure:
Percent inhibition of thrombin activity is calculated from OD405 nm value from the experimental and control sample.
Recombinant human VIIa was purchased from American Diagnostica, Greenwich Conn. and chromogenic substrate N-Methylsulfonyl-D-phe-gly-arg-p-nitroaniline was prepared by American Peptide Company, Inc., Sunnyvale, Calif. Factor Xa was obtained from Enzyme Research Laboratories, South Bend Ind., thrombin from Calbiochem, La Jolla, Calif., and trypsin and L-BAPNA from Sigma, St Louis Mo.

The target of experiment [2] is T3, trypsin, type IX from porcine pancreas (Sus scrofa, UniProt P00761).
T3 construct: purchased Sigma, St Louis Mo. type IX; host or cells: porcine pancreas
T3 sequence (P00761 9-231): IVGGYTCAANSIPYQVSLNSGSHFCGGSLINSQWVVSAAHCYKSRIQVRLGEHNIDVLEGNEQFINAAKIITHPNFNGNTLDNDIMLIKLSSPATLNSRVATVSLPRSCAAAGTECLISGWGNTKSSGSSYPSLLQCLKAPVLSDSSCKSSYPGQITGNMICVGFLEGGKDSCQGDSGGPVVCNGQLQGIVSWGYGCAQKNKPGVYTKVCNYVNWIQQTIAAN
The experiment in a line: Trypsin Assay. Conditions: L-BAPNA substrate, 60 min, room temperature, pH 8.0; read-out: Trpysin II ICSO. On the procedure: 5 ug/ml trypsin, type IX from porcine pancreas and 0.375 mM N-α-Benzoyl-L-arginine-p-nitroanilide (L-BAPNA) are added to a 96-well assay plate containing either inhibitor or buffer (50 mM Tris-HCl, pH 8.0, 100 mM NaCl, 0.1% BSA). The reactions, in a final volume of 100 ul are measured immediately at 405 nm to determine background absorbance. The plate is incubated at room temperature for 60 min, at which time the rate of hydrolysis of the substrate is measured by monitoring the reaction at 405 nm for the release of p-nitroaniline. Percent inhibition of trypsin activity is calculated from OD405 nm value from the experimental and control sample.
as §2

Some results are limits rather than exact numbers.

T2 sequence (P00742 235-488 limits assumed): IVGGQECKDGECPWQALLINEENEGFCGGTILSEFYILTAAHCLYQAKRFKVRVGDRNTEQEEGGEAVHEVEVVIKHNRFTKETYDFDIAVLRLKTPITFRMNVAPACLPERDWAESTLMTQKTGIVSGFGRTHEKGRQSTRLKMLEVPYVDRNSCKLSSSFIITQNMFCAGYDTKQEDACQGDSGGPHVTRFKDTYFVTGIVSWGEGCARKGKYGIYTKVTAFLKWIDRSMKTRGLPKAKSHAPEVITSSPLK
T2 sequence (P00742 41-179 partner limits assumed): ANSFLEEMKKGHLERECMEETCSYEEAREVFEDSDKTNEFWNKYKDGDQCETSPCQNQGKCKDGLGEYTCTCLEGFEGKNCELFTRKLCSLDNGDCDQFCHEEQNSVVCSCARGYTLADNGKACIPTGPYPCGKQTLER
T1 sequence (P08709 213-466 limits assumed): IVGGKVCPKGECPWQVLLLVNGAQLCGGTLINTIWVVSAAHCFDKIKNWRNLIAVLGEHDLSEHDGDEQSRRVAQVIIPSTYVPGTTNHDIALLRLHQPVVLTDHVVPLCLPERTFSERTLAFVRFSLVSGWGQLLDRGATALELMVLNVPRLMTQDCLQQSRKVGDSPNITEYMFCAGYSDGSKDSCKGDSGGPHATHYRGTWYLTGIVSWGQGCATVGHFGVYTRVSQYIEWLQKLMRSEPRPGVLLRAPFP
T1 sequence (P08709 61-212 partner limits assumed): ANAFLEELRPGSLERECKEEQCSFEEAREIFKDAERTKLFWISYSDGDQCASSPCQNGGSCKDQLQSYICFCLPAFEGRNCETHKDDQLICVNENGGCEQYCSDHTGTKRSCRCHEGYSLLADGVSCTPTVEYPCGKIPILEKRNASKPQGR
T1 sequence (P13726 33-251 partner limits assumed): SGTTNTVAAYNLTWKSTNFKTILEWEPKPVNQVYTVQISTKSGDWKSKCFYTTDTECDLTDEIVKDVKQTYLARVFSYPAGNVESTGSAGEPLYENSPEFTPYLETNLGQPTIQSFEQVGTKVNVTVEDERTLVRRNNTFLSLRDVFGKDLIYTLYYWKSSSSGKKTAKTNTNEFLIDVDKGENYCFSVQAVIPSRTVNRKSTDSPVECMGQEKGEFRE

As to `N=C(N)NCCC[C@H](NC(=O)Cn1c(=O)c(NS(=O)(=O)Cc2ccccc2)cc2ccccc21)C(=O)c1nccs1` [Example 1], the IC50 is 4.6 µM in experiment [1], 0.07 µM against human factor Xa, 0.7 µM on human thrombin and 210 nM in experiment [2].

Regarding `N=C(N)c1ccc(CNC(=O)Cn2c(=O)c(NS(=O)(=O)Cc3ccccc3)cc3ccccc32)cc1` [Example 2, N-[[4-[(amino)iminomethyl]phenyl]methyll]-2-[3-benzylsulfonyl-amino-2-oxo-2H-quinolin-1-yl]acetamide], the IC50 was 46 µM in experiment [1], 7.7 µM against human factor Xa, 5.5 µM at human thrombin and 500 nM in experiment [2].

On to `N=C(N)c1ccc(CNC(=O)Cn2c(=O)c(NCCc3ccccc3)cc3ccccc32)cc1` [Example 3], for which the IC50 in experiment [1] was 26.1 µM; on human factor Xa it was > 30 µM; at human thrombin, 11 µM; in experiment [2], 860 nM.

Consider `N=C(N)c1ccc(CNC(=O)Cn2c(=O)c(NS(=O)(=O)c3ccccc3)cc3ccccc32)cc1` [Example 4], for which the IC50 was > 30 µM in experiment [1], 23.1 µM on human factor Xa, 22.7 µM on human thrombin and 480 nM in experiment [2].

For the compound `Nc1ccc(CCNC(=O)Cn2c(=O)c(NS(=O)(=O)Cc3ccccc3)cc3ccccc32)cc1` [Example 6], the IC50 in experiment [1] was > 30 µM; against human factor Xa, > 30 µM; on human thrombin, > 30 µM; in experiment [2] it was > 30000 nM.

Turning to `NCCCCNC(=O)Cn1c(=O)c(NS(=O)(=O)Cc2ccccc2)cc2ccccc21` [Example 7], the IC50 was > 30 µM in experiment [1], > 30 µM at human factor Xa, > 30 µM at human thrombin and > 30000 nM in experiment [2].

In the case of `NCCCCCNC(=O)Cn1c(=O)c(NS(=O)(=O)Cc2ccccc2)cc2ccccc21` [Example 8], the IC50 in experiment [1] was > 30 µM; on human factor Xa, > 30 µM; on human thrombin, > 30 µM; in experiment [2], > 30000 nM.

Turning to `CN(C)CCCCCCNC(=O)Cn1c(=O)c(NS(=O)(=O)Cc2ccccc2)cc2ccccc21` [Example 9], the IC50 in experiment [1] is > 30 µM; at human factor Xa it was > 30 µM; on human thrombin, > 30 µM; in experiment [2] it was > 30000 nM.

For the compound `NCc1ccc(CNC(=O)Cn2c(=O)c(NS(=O)(=O)Cc3ccccc3)cc3ccccc32)cc1` [Example 10], the IC50 in experiment [1] was > 30 µM; at human factor Xa it was > 30 µM; at human thrombin it was > 30 µM; in experiment [2], > 30000 nM.

For the compound `NCc1cccc(CNC(=O)Cn2c(=O)c(NS(=O)(=O)Cc3ccccc3)cc3ccccc32)c1` [Example 11], the IC50 in experiment [1] is > 30 µM; against human factor Xa, > 30 µM; on human thrombin, > 30 µM; in experiment [2] it was > 30000 nM.

Turning to `O=C(Cn1c(=O)c(NS(=O)(=O)Cc2ccccc2)cc2ccccc21)NCCCn1ccnc1` [Example 12], the IC50 in experiment [1] is > 30 µM; on human factor Xa it was > 30 µM; on human thrombin, > 30 µM; in experiment [2] it was > 30000 nM.

`O=C(Cn1c(=O)c(NS(=O)(=O)Cc2ccccc2)cc2ccccc21)NCCc1cnc[nH]1` [Example 13]: the IC50 in experiment [1] is > 30 µM; on human factor Xa it was > 30 µM; at human thrombin, > 30 µM; in experiment [2] it was > 30000 nM.

Take `O=C(Cn1c(=O)c(NS(=O)(=O)Cc2ccccc2)cc2ccccc21)NCCc1cccnc1` [Example 14]: the IC50 in experiment [1] was > 30 µM; at human factor Xa, > 30 µM; on human thrombin it was > 30 µM; in experiment [2], > 30000 nM.

For the compound `CN1CCC(CCCNC(=O)Cn2c(=O)c(NS(=O)(=O)Cc3ccccc3)cc3ccccc32)CC1` [Example 15], the IC50 in experiment [1] is > 30 µM; against human factor Xa it was > 30 µM; on human thrombin, > 30 µM; in experiment [2], > 30000 nM.

On to `Nc1ccc(CNC(=O)Cn2c(=O)c(NS(=O)(=O)Cc3ccccc3)cc3ccccc32)cc1` [Example 16], for which the IC50 was > 30 µM in experiment [1], > 30 µM on human factor Xa, > 30 µM at human thrombin and > 30000 nM in experiment [2].

Turning to `N=C(N)NCCC[C@H](NC(=O)Cn1c(CCc2ccccc2)ccc(NS(=O)(=O)Cc2ccccc2)c1=O)C(=O)c1nccs1` [Example 17, N-[2(S)-2-[1-Oxo-1-(2-thiazolyl)]-5-[[(amino)iminomethyl]amino]pentyl]-2-[6-(2-phenylethyl)-2-oxo-3-[[(phenylmethyl)sulfonyl]amino]-1(2H)-pyrid-1-yl]acetamide], the IC50 in experiment [1] was found to be 1.1 µM; on human factor Xa, 0.1 µM; at human thrombin it was 0.2 µM; in experiment [2], 300 nM.

Consider `Cc1ccc(NS(=O)(=O)Cc2ccccc2)c(=O)n1CC(=O)N[C@@H](CCCNC(=N)N)C(=O)c1nccs1` [Example 18, N-[2(S)-2-[1-Oxo-1-(2-thiazolyl)]-5-[[(amino)iminomethyl]amino]pentyl]-2-[6-methyl-2-oxo-3-[[(phenylmethyl)sulfonyl]amino]-1(2H)-pyrid-1-yl]acetamide], for which the IC50 is 0.8 µM in experiment [1], < 4 µM against human factor Xa, < 0.04 µM on human thrombin and 200 nM in experiment [2].

Consider `N=C(N)c1ccc(CNC(=O)Cn2c(CCc3ccccc3)ccc(NS(=O)(=O)Cc3ccccc3)c2=O)cc1` [Example 19, N-[[4-[(amino)iminomethyl]phenyl]methyl)-2-[6-(2-phenylethyl)-2-oxo-3-[[(phenylmethyl)sulfonyl]amino]-1(2H)-pyrid-1-yl]acetamide], for which the IC50 is 18 µM in experiment [1], 4.1 µM against human factor Xa, 0.4 µM at human thrombin and < 100 nM in experiment [2].

In the case of `Cc1ccc(NS(=O)(=O)Cc2ccccc2)c(=O)n1CC(=O)NCc1ccc(C(=N)N)cc1` [Example 20, N-[(4-[[amino)iminomethyl]phenyl]methyl]-2-[6-methyl-2-oxo-3-[[(phenylmethyl)sulfonyl]amino]-1(2H)-pyrid-1-yl]acetamide], the IC50 in experiment [1] amounted to 23 µM; against human factor Xa, 5.7 µM; at human thrombin it was 0.3 µM; in experiment [2] it was 500 nM.

Turning to `N=C(N)N1CCC(CNC(=O)Cn2c(CCc3ccccc3)ccc(NS(=O)(=O)Cc3ccccc3)c2=O)CC1` [Example 21], the IC50 in experiment [1] is > 30 µM; against human factor Xa, 17 µM; on human thrombin, 0.5 µM; in experiment [2] it was 600 nM.

Take `Cc1ccc(NS(=O)(=O)Cc2ccccc2)c(=O)n1CC(=O)NCC1CCN(C(=N)N)CC1` [Example 22]: the IC50 in experiment [1] was > 30 µM; in experiment [2], 11100 nM.
